The values below come from patent publication US7985745B2, “Method for pain treatment” (Abbott Laboratories, priority 2006, dated 2011).

Where two headings read alike, the source gives them in different places.

The target in data set [1] is T1, histamine H4 receptor (Homo sapiens, UniProt Q9H3N8).
T1 construct: expressed in transfected cells; host or cells: HEK-293 cells, transient transfection with pCINeo vector; membranes
Kind of data set: FLIPR Ca2+ assay in HEK-293 cells stably expressing histamine H4 receptor and Gαqi5. It counts as cell-based. The following applies: Kb for antagonists and inverse agonists, EC50 for partial agonists; block of histamine-induced Ca2+ increase. The source says: Histamine H4 receptors from mammalian species have been cloned. Methods to clone, express, and assess the potency and functional activity of such cloned genes are well known to those skilled in the art of molecular biology. […] Before testing, cells are loaded with a Ca^+2 sensitive fluorescent dye, in this case Fluo-4. In the case of partial agonist or agonist ligands, addition of compound to the cells leads to the increase in intracellular Ca^+2 which is detected by FLIPR (Fluorescence Imaging Plate Reader; Molecular Devices, Sunnyvale, Calif.) technology. […] The fluorescence intensities measured before addition of the test compound are subtracted from the fluorescence intensities at later time points. Peak response values determined at each concentration of ligand are expressed as a percentage of the response obtained with the full agonist histamine. Concentration versus response data are analyzed to obtain compound potency as Kb values for antagonists and inverse agonists and as EC50 values for partial agonists.

The next data set concerns thermal hyperalgesia. Briefly: Complete Freund's adjuvant-induced thermal hyperalgesia. The class given is in vivo, rat. The following applies: 30 minutes before testing, 48 hours after CFA, thermal stimulus. Here is the method:
To assess the effectiveness of representative compounds of the invention against hyperalgesia, animals were tested in an acute model of adjuvant-induced thermal hyperalgesia (see for example, Honore, et al. Behavioural Brain Research 167 (2006) 355-364; Carroll, et al. US Patent application US 2006/0025614A 1). To prepare animals for the model, a solution of Complete Freund's adjuvant (150 microliters of a 50% aqueous solution, Sigma Chemical Company, St. Louis, Mo.) was injected into the plantar surface of test paw of the animal (rat). Rats so injected develop a hyperalgesia to thermal stimulation which is assessed 48 hours after injection of the Complete Freund's adjuvant using a commercially available paw thermal stimulator (UARDG, Dept. of Anesthesiology, Univ. California at San Diego, La Jolla, Calif.). For testing, rats were placed individually in a so-called ‘hot box’ (i.e. Plexiglass cubicles mounted on a glass surface) maintained at 30° C., and allowed a 30 minute habituation period. A thermal stimulus, in the form of radiant heat emitted from a focused projection bulb, was then applied to the plantar surface of each hind paw. The stimulus current was maintained (e.g. at 4.5 Amp) and the time of exposure set to limit the extent of possible tissue damage (e.g. maximum of 20 seconds exposure to thermal heating from the projection bulb). The time (in seconds) for the withdrawal of the paw that was injected with the Complete Freund's adjuvant (CFA) and subjected to the thermal stimulus was recorded, and this was compared to the time (in seconds) for withdrawal of the uninjected paw subjected to the same thermal stimulus. […] To test the effect of a compound on the hyperalgesia, the test compound is dissolved in a vehicle (e.g. water or saline) and administered by i.p. (intraperitoneal) injection 30 minutes before the testing of the animal's response to the thermal stimulus to the paws. The antihyperalgesic activity of the compound in blocking the pain is shown by an increase in the time to withdraw the CFA-injected paw subjected to thermal stimulus. Experiments are done with single-dose and escalating-dosages of the test compound, and dose response curves constructed to determine ED50 values.

Data set [2] addresses T1, histamine H4 receptor. Briefly: 3H-histamine competition binding assay, membranes of transfected HEK-293 cells. The method, then: In this assay, membranes were prepared from HEK-293 cells transiently transfected with the pCINeo expression vector harboring the histamine H4 receptor by homogenization of the cells on ice in TE buffer (50 mM Tris-HCl buffer, pH 7.4, containing 5 mM EDTA), 1 mM benzamidine, 2 μg/ml aprotinin, 1 μg/ml leupeptin, and 1 μg/ml pepstatin. The homogenate was centrifuged at 40,000 g for 20 minutes at 4° C. This step was repeated, and the resulting pellet was resuspended in TE buffer. Aliquots were frozen at −70° C. until needed. On the day of assay, membranes were thawed and diluted with TE buffer. Competition radioligand binding assays were performed with increasing concentrations of test compound in the presence of [^3H]-histamine incubated at 25° C. for 1 h in a total volume of 0.5 ml of 50 mM Tris, 5 mM EDTA, pH 7.4. All binding reactions were terminated by filtration under vacuum onto polyethylenimine (0.3%) presoaked Unifilters (PerkinElmer Life Sciences) or Whatman GF/B filters (Whatman, Clifton, N.J.) followed by three brief washes with 4 ml of ice-cold TE buffer. Bound radiolabel was determined by liquid scintillation counting. For all of the radioligand competition binding assays, IC50 values and Hill slopes were determined by Hill transformation of the data and Ki values were determined by the Cheng-Prusoff equation.

In the next data set the test system is inflammatory pain. Kind of data set: Carrageenan-induced thermal hyperalgesia, hotbox assay. The following applies: 90 minutes after carrageenan, tested 30 minutes after dosing. It counts as in vivo. Here is the method:
To assess the effectiveness of representative compounds of the invention against acute model inflammatory pain, animals were tested in an acute model of carrageenan-induced thermal hyperalgesia (see for example, Honore, et al. Behavioural Brain Research 167 (2006) 355-364; Porreca, et al. Journal of Pharmacology and Experimental Therapeutics (2006) vol. 318 pp. 195-205). Carrageenan was injected into the test paw of the animal, and after 90 minutes, the test drug was administered by intraperitoneal dosing. The effect on thermal hyperalgesia was assessed in a hotbox assay which was done 30 minutes after the intraperitoneal dosing of the test drug, and the MPE (maximal percent effect) reported by comparison to the control paw (not injected with carrageenan), according to 100 times the withdrawal latency of the carrageenan injected paw (in seconds) divided by the withdrawal latency of the control (not injected with carrageenan) paw.

The next data set relates to neuropathic pain. Kind of data set: Chung model: L5/L6 spinal nerve ligation, mechanical allodynia by von Frey filaments. The class given is in vivo, rat. The following applies: 100 micromole/kg i.p., 30 minutes before testing. The method, then: Animals were prepared for testing, by use of a surgical procedure that induces neuropathic pain in one paw. Male Sprague Dawley rats were purchased from Charles River (Portage, Mich.). Prior to surgery, animals were housed in groups and maintained in a temperature-regulated environment. Following nerve ligation surgery, animals were housed in groups, and had access to food and water ad libitum.
The L5 and L6 spinal nerves of anesthetized rats were tightly ligated in a manner described previously (see Kim and Chung, Pain (1992) vol. 50 pp. 355-363). An incision was made on the dorsal portion of the hip and the muscle was blunt-dissected to reveal the spinal processes. The L6 transverse process was removed, and the left side L5 and L6 spinal nerves were tightly ligated with 5.0 braided silk suture. The wound was cleaned, the membrane sewn with 4.0 dissolvable Vicryl suture and the skin closed with wound clips. The paw affected by the surgical procedure (the left paw) develops an allodynic response, a hypersensitivity to mechanical and other stimuli; neuropathic pain is assessed as an increased sensitivity in the surgically affected (left) allodynic paw compared to the control paw on the right side, and measured by comparing the response of the (left side) allodynic paw to the response of the unaffected right side control paw.
For the assessment of neuropathic pain, mechanical allodynia in the affected paw of animals that had undergone spinal nerve ligation was evaluated using testing with von Frey filaments. As described previously by S. R. Chaplan, et al (“Quantitative assessment of tactile allodynia in the rat paw” J. Neurosci. Meth. (1994) vol. 53 pp. 55-63), two weeks following surgery rats were acclimated to a testing box constructed of plexiglass with a wire mesh floor which allowed access to the plantar surface of the animal's hindpaws. Using an Up-Down method (Dixon, Annual Rev. Pharmacol. Toxicol. (1980) vol. 20, pp. 441-462; Chaplan et al. “Quantitative assessment of tactile allodynia in the rat paw” J. Neuroscience Methods (1994) vol. 53 pp. 55-63), von Frey filaments of increasing stiffness were applied to the plantar surface of the hindpaws and the withdrawal response of the animals was observed; for the surgically affected paw with neuropathic pain (the left side paw) the baseline level of allodynia has a withdrawal threshold of ≦4 g of pressure. By comparison, for the control paw without allodynia (in this case the right side paw), the typical withdrawal pressure is around 15 g. Representative compounds of the invention, administered intraperitoneally 30 minutes before testing, are able to reduce the symptoms of neuropathic pain and induce a dose-dependent increase in the withdrawal threshold for allodynic (left side) limb, up to a maximum effect of 15 g. The efficacy of the compound in reducing neuropathic pain at different doses is determined by comparing response in the surgery-affected paw versus the response in the control paw. This is expressed as the MPE (maximum percent effect), or 100 times the withdrawal threshold of the allodynic (left side) divided by the withdrawal threshold of the control (right side).

In data set [3] the test system is mechanical allodynia after skin incision. Kind of data set: Surgical skin incision model, mechanical allodynia by von Frey hair. The class given is in vivo, rat. The method, then:
This is a surgical skin incision model (Joshi, et al. Pain 123 (2006) 75-82). Animals (rats) were prepared for testing by subjecting them to a surgical procedure carried out under sterile conditions, where the plantaris muscle was elevated and incised longitudinally with the origin and insertion of the muscle remaining intact. The skin was then closed with two mattress sutures (e.g. 5-0 nylon sutures). After surgery, animals were allowed to recover on a warming plate and housed individually in cages with soft bedding. […] Animals were tested for mechanical allodynia using von Frey hair mechanical stimulation 2, 24, and 48 h after surgery as described for the Chung model.

The test system of a further data set is osteoarthritis pain. Briefly: MIA-induced knee joint osteoarthritis model, hind limb grip force. The following applies: 100 micromole/kg i.p.; grip force 20 days after MIA; % return to normalcy vs naïve group. The class given is in vivo, rat. The method, then: Unilateral knee joint osteoarthritis was induced in rats by a single intra-articular (i.a.) injection of sodium monoiodoacetate (MIA) (Sigma-Aldrich, St. Louis, Mo.) (3 mg in 50 ul sterile isotonic saline) into the right knee joint cavity under light (1-3%) isoflurane anesthesia.
Pain behavior was assessed by measurement of hind limb grip force (GF) in adult osteoarthritic rats. Following the unilateral injection of MIA (male Sprague Dawley, 325-350 g, tested at 20 days following MIA injection), a behavioral measure of activity-induced pain was carried out. Measurements of the peak hind limb grip force were conducted by recording the maximum compressive force (CFmax), in grams of force, exerted on a hind limb strain gauge setup, in a commercially available grip force measurement system (Columbus Instruments, Columbus, Ohio).
During testing, each rat was gently restrained by grasping it around its rib cage and then allowed to grasp the wire mesh frame attached to the strain gauge. The experimenter then moved the animal in a rostral-to-caudal direction until the grip was broken. Each rat was sequentially tested twice at approximately 2-3 min interval to obtain a raw mean grip force (CFmax). This raw mean grip force data was in turn converted to a maximum hindlimb cumulative compressive force (CFmax), as the grams of force/kg of body weight, for each animal.
For evaluating the compound effects, the hind limb grip force was conducted 20 days following the intra-articular injection of MIA. A group of age-matched naïve (not injected with MIA) animals was added as a comparator to the drug-dosed groups. The vehicle control response for each group of MIA-treated animals was defined as the 0% response (0% effect), whereas the naïve control group was defined as the normal response and as 100% effect. The % effects for each dose group was expressed as % return of response to normalcy, compared to the naïve group. That is, the % effect=(Treatment CFmax−Vehicle CFmax)/[…]]×100). All experiments evaluating drug effects in this model were conducted in a randomized blinded fashion.

Where [4] appears, read: displacement of [3H]-histamine, 25° C., 1 h, read-out: Potency in Competition Binding Assay.

T1 sequence (Q9H3N8 whole entry, species assumed): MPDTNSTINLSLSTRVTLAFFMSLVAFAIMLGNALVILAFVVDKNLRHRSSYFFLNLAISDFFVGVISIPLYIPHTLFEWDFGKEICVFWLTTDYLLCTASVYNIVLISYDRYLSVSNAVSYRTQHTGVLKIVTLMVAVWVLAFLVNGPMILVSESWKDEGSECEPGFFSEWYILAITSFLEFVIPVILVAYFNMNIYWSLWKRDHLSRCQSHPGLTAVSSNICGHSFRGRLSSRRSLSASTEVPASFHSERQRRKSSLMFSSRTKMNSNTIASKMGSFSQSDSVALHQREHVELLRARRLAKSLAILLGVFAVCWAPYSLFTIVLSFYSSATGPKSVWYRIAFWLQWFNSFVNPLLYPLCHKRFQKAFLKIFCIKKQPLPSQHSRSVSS

Take `CN1CCN(c2cc(-c3cccnc3)nc(N)n2)CC1.O=C(O)/C=C\C(=O)O` [Example 2, 4-(4-Methylpiperazin-1-yl)-6-(pyridin-3-yl)pyrimidin-2-amine, maleate]: the melting point was 175 to 178 °C (dec.). Also, at histamine H4 receptor [1], the “Potency in the FLIPR assay” value stood at 200 nM. The MPE in the data set with thermal hyperalgesia (30 micromole/kg i.p.) is 51%. Also, in the data set on thermal hyperalgesia (100 micromole/kg i.p.), the MPE is on record as 83%. Further, at histamine H4 receptor [2] (setting [4]), the Ki came to 178 nM.

On to `Nc1nc2c(c(N3CC[C@@H](N)C3)n1)CCCc1ccccc1-2` [Example 4, 4-((3R)-3-Amino-pyrrolidin-1-yl)-6,7-dihydro-5H-benzo[6,7]cyclohepta[1,2-d]pyrimidin-2-ylamine], for which the MPE in the data set with inflammatory pain (100 micromole/kg i.p.) amounted to 68%; in the data set with neuropathic pain it was 47%.

With `Nc1nc2c(c(N3CCNCC3)n1)CCCc1ccccc1-2` [Example 5, 4-piperazin-1-yl-6,7-dihydro-5H-benzo[6,7]cyclohepta[1,2-d]pyrimidin-2-ylamine], the MPE in the data set on inflammatory pain (100 micromole/kg i.p.) amounted to 23%; in the data set with neuropathic pain it was 28%. On histamine H4 receptor [1], the “Potency in the FLIPR assay” value worked out at 15 nM. The Ki on histamine H4 receptor [2] (setting [4]) turned out to be 80 nM.

As to `O=S(=O)(NCCc1c[nH]cn1)NCc1ccc(Cl)c(Cl)c1` [Example 7, Sulfamide, N-[(3,4-dichlorophenyl)methyl]-N′-[2-(1H-imidazol-4-yl)ethyl]-], the MPE is 33% in the data set with inflammatory pain (3 micromole/kg i.p.); 42% in the data set with inflammatory pain (10 micromole/kg i.p.); 93% in the data set with inflammatory pain (30 micromole/kg i.p.); 33% in data set [3] (3 micromole/kg i.p.); 50% in data set [3] (10 micromole/kg i.p.). Also, at histamine H4 receptor [1], the “Potency in the FLIPR assay” value is reported as 34 nM. The compound also gave a Ki at histamine H4 receptor [2] of 33 nM. The “% Effect” value with osteoarthritis pain was 22%.
